Data on one compound can be found in patent publication US8124637B2, “Anthra [1, 2-d]imidazole-6,11-dione derivatives, preparation method and application thereof” (National Defense Medical Center, priority 2010, dated 2012).

For data set [1], the system named is hTERT promoter (PhTERT) expression. In words: SEAP assay (PhTERT-SEAP reporter, H1299). The format is cell-based, human. The note with it: Homo sapiens, NCI-H1299, PhTERT-SEAP (H1299). Here is the method:
H1299 were grown in RPMI 1640 media supplemented with 10% fetal bovine serum, 100 units/mL penicillin and […] streptomycin in a humidified atmosphere with 5% CO2 at 37° C. Culture media were changed every three days. To establish stable cell lines that the expression of hTERT could be monitored by a reporter system, a about 3.3 kbp DNA fragment ranging from −3338 to +1 bp of the hTERT gene (hTERT promoter, PhTERT) was subcloned upstream to a secreted alkaline phosphatase gene (SEAP) and transfected into H1299 bp electroporation. The stable clones were selected using G418. The stable clones derived from H1299 were cultured using conditions that are similar to their parental cells.
Secreted alkaline phosphatase was used as the reporter system to monitor the transcriptional activity of hTERT. Here, about 10^4 cells each were grown in 96-well plates and incubated at 37° C. for 24 hours and changed with fresh media. Varying amounts of drugs were added and cells were incubated for another 24 hours. Culture media were collected and heated at 65° C. for 10 min to inactivate heat-labile phosphatases. An equal amount of SEAP buffer (2 M diethanolamine, 1 mM MgCl2, and 20 mM L-homoarginine) was added to the media and p-nitrophenyl phosphate was added to a final concentration of 12 mM. Absorptions at 405 nm were taken, and the rate of absorption increase is determined (the increasing rate of absorbance at 405 nm was used to represent the activity of SEAP).

A short description of data set [2]: MTT assay (relative cell survival), H1299. The note with it: human, H1299 non-small cell lung cancer cells (PhTERT-SEAP), Relative MTT viability (%). On the technique in general: Tetrazolium dyes change colour on reduction, which living cells bring about.
Description: (§1) Further, cells were subjected to MTT assay to compare the relative toxicity or effect of each compound on cell proliferation and activity.
(§2) The above-described cells are cultured in a 96-well plate, to which was added with 25 μl MTT solution, and cultured in a 37° C. carbon dioxide incubator for 4 hours. Then, 100 μl Lysis buffer is added and incubated in a 37° C. carbon dioxide incubator overnight. An ELISA reader (Bio-Rad Model 450) is used to read optical density (O.D.) at 550 nm.
(§3) After being subjected to different compound treatments for 72 hours, cells were treated with a fixed amount of MTT solution for 28 hours. Then, DMSO was used to dissolve back formazan, an O. D. value was detected at wavelength in the range of 550/670 nm, and calculated accordingly the cell survival rate (as shown in Table 1).
Another data set relates to H1299 cells. In words: MTT assay (relative cell survival), H1299. Conditions: PhTERT-SEAP (H1299), 100 μM.

SMILES strings stand for the structures.

Description for H1299 cells: as §1, §2, §3

As usually defined, the viability is a per cent measure of how many cells are alive, often set against a control. For `O=C1c2ccccc2C(=O)c2c1ccc1nc(CCN3CCN(c4ccccn4)CC3)[nH]c21` [CL38, 2-(2-(4-(pyridin-2-yl)piperazin-1-yl)ethyl)-1H-anthra[1,2-d]imidazole-6,11-dione], in data set [1] (1 μM, read-out: Relative SEAP activity (%)), the activity at 1 µM came out at 87.6 ± 8.63%. Further, in data set [1] (10 μM, read-out: Relative SEAP activity (%) (converted)), the activity at 10 µM is 62.9%. For the same compound, the activity at 100 µM in data set [1] (100 μM, read-out: Relative SEAP activity (%) (converted)) was 1.49%. The viability at 72 h, 1 µM in data set [2] (1 μM) was 98 ± 7.72%. This compound also gave a viability at 72 h, 10 µM in data set [2] (10 μM) of 92.8%. Further, in data set [2] (100 μM), the viability at 72 h, 100 µM was over 40%. In addition, the “Relative MTT viability (%)” value with H1299 cells is on record as 57.03 ± 10.76%.
